Results reported in patent US8470765B2, “Polypeptides and antibacterial or antiseptic use of same” (AnGes MG, Inc., priority 2009, dated 2013).
Values after ≈ are worked out from the molar mass of the structure shown. Like-named read-outs stand apart in the source and are kept apart here. No end group written: not given here.

Key:
[1] = tested on: Staphylococcus epidermidis JCM 2414; assay: microbe, parasite or virus in culture; type: cell-based; settings: for MIC Staphylococcus epidermidis: JCM 2414
Description: (§1) Bacteria (Escherichia coli ATCC 25922, Pseudomonas aeruginosa ATCC 27853, Staphylococcus aureus ATCC29213, Klebsiella pneumoniae JCM 1662, Enterobacter cloacae JCM 1232, Enterobacter aerogenes JCM 1235 and Staphylococcus epidermidis JCM 2414) were inoculated to Mueller-Hinton broth: MHB or LB medium, and cultured at a temperature and period suited for each strain. From the thus obtained colonies, each strain was inoculated to a fresh liquid medium and cultured for 16 to 20 hours. Then an aliquot having a volume (10 to 50 appropriate to each strain was inoculated to a fresh liquid medium and cultured for 4 to 6 hours, followed by the measurement of the absorbance at 600 nm. After comparing the turbidity with McFarland #0.5, the resultant was diluted with a medium. Each strain was added to about 10^5 CFU/mL (final concentration). Each of the peptide solutions to be tested was diluted with MHB to obtain a solution of 128 μg/mL. […] As controls, tobramycin (TOB: aminoglucoside antibiotic), oxacillin (OX:β-lactam antibiotic), meropenem (MEPM: carbapenem antibiotic) and ciprofloxacin (new quinolone antibiotic) were used. […] To a 96-well microtiter plate, 0.1 mL of the inoculation solution and 0.1 mL of the peptide- or positive control-containing medium having the respective concentration were added, and cultured at 37° C. for 16 to 24 hours (or a time period suited for the growth of the respective strain). The well not containing the sample was used as a negative control. After the culturing, the growth was visually observed, and the minimum concentration at which the growth was inhibited was defined as the minimum growth inhibition concentration (MIC). The medium used in this test for bacteria was Mueller-Hinton broth. Independent experiments were carried out twice or more for each strain.

[2] = tested on: Staphylococcus aureus ATCC29213; assay: microbe, parasite or virus in culture; type: cell-based
Description: as §1

[3] = tested on: methicillin-resistant Staphylococcus (MRSA) MRSA(ii); assay: organism not typed; settings: read-out: MIC MRSA(ii)
Description: (§2) Bacteria (Escherichia coli ATCC 25922, Pseudomonas aeruginosa ATCC 27853, Staphylococcus aureus ATCC29213, Klebsiella pneumoniae JCM 1662, Enterobacter cloacae JCM 1232, Enterobacter aerogenes JCM 1235 and Staphylococcus epidermidis JCM 2414) were inoculated to Mueller-Hinton broth: MHB or LB medium, and cultured at a temperature and period suited for each strain. From the thus obtained colonies, each strain was inoculated to a fresh liquid medium and cultured for 16 to 20 hours. Then an aliquot having a volume (10 to 50 appropriate to each strain was inoculated to a fresh liquid medium and cultured for 4 to 6 hours, followed by the measurement of the absorbance at 600 nm. After comparing the turbidity with McFarland #0.5, the resultant was diluted with a medium. Each strain was added to about 10^5 CFU/mL (final concentration).
(§3) Further, the antibacterial activities against the clinical strains collected and isolated from infected patients were also examined. The tests were carried out for two methicillin-resistant Staphylococcus (MRSA) (MRSA (i) and (ii)), two methicillin-sensitive Staphylococcus (MSSA) (MSSA (i) and (ii)), five Pseudomonas aeruginosa, Pseudomonas aeruginosa 1, Pseudomonas aeruginosa 6, Pseudomonas aeruginosa 8. Pseudomonas aeruginosa 9 and Pseudomonas aeruginosa 12, totally 9 clinical strains. The MRSA and MSSA clinical strains were tested by the same method as Staphylococcus aureus ATCC29213, and Pseudomonas clinical strains were tested by the same method as Pseudomonas aeruginosa ATCC 27853.
(§4) Each of the peptide solutions to be tested was diluted with MHB to obtain a solution of 128 μg/mL. This solution was serially diluted with the medium to prepare peptide-containing media having concentrations of 128, 64, 32, 16, 8.0, 4.0 and 2.0 μg/mL respectively. […] By dilution with sterilized purified water to 1.0 mg/mL, positive control-containing media having concentrations of 16, 8, 4, 2, 1.0, 0.25, 0.12 and 0.06 μg/mL, respectively for TOB; 0.5, 0.12 and 0.06 μg/mL, respectively, for OX; and 16, 8, 4, 2, 1.0, 0.25, 0.12, 0.06, 0.06, 0.03 and 0.008 μg/mL, respectively, for MEPM, were prepared.
(§5) To a 96-well microtiter plate, 0.1 mL of the inoculation solution and 0.1 mL of the peptide- or positive control-containing medium having the respective concentration were added, and cultured at 37° C. for 16 to 24 hours (or a time period suited for the growth of the respective strain). The well not containing the sample was used as a negative control. After the culturing, the growth was visually observed, and the minimum concentration at which the growth was inhibited was defined as the minimum growth inhibition concentration (MIC).
(§6) The medium used in this test for bacteria was Mueller-Hinton broth. Independent experiments were carried out twice or more for each strain.

[4] = tested on: methicillin-sensitive Staphylococcus (MSSA) MSSA(ii); assay: organism not typed; settings: read-out: MIC MSSA(ii)
Description: as §2, §3, §4, §5, §6

[5] = tested on: methicillin-resistant Staphylococcus (MRSA) MRSA(i); assay: organism not typed; settings: read-out: MIC MRSA(i)
Description: as §2, §3, §4, §5, §6

[6] = tested on: methicillin-sensitive Staphylococcus (MSSA) MSSA(i); assay: organism not typed; settings: read-out: MIC MSSA(i)
Description: as §2, §3, §4, §5, §6

[7] = tested on: Escherichia coli ATCC 25922; assay: ATP Assay (viability at 3 hours), Table 6; type: cell-based; settings: for Escherichia coli ATP (viability, relative value to negative control): 3 h, 5 μg/mL
Description: as §2, with “ATCC29213,” for “ATCC29213, Klebsiella pneumoniae JCM 1662, Enterobacter cloacae JCM 1232, Enterobacter aerogenes JCM 1235”, “50 μL)” for “50”
(§7) Each of the peptide solutions to be tested was diluted with the medium to obtain a solution of 10 μg/mL. As positive controls, tobramycin (TOB), oxacillin (OX) and meropenem (MEPM) were used. By dilution with sterilized purified water to 1.0 mg/mL, positive control-containing media having concentrations of […], respectively for TOB; 0.5, 0.12 and 0.06 μg/mL, respectively, for OX; and 1.0, 0.25, 0.12, 0.06, 0.03 and 0.008 μg/mL respectively, for MEPM, were prepared. To a 96-well microtiter plate, 0.1 mL of the inoculation solution and 0.1 mL of the peptide- or positive control-containing medium having the respective concentration were added, and cultured at 37° C. for 3 hours. The well not containing the sample was used as a negative control. After the culturing, ATP was measured using BacTiter-Glo Microbial Cell Viability Assay kit of PROMEGA, and compared with that in the negative control to obtain a relative value which was defined as a viability. The antibacterial activity was evaluated based on the viability at 3 hours later using ATP as an index.
(§8) The medium used in this test for bacteria was Mueller-Hinton broth. Independent experiments were carried out twice for each strain.

[8] = tested on: Staphylococcus aureus ATCC29213; assay: ATP Assay (viability at 3 hours), Table 6; type: cell-based; settings: for Staphylococcus aureus ATP (viability, relative value to negative control): 3 h, 5 μg/mL
Description: as §2, with “ATCC29213,” for “ATCC29213, Klebsiella pneumoniae JCM 1662, Enterobacter cloacae JCM 1232, Enterobacter aerogenes JCM 1235”, “50 μL)” for “50”
as §7, §8

[9] = tested on: Pseudomonas aeruginosa ATCC 27853; assay: ATP Assay (viability at 3 hours), Table 6; type: cell-based; settings: for Pseudomonas aeruginosa ATP (viability, relative value to negative control): 3 h, 5 μg/mL
Description: as §2, with “ATCC29213,” for “ATCC29213, Klebsiella pneumoniae JCM 1662, Enterobacter cloacae JCM 1232, Enterobacter aerogenes JCM 1235”, “50 μL)” for “50”
as §7, §8

[10] = tested on: Candida krusei NBRC1395
[11] = tested on: Streptococcus pyogenes JCM5674
[12] = tested on: Escherichia coli ATCC 25922; assay: microbe, parasite or virus in culture; type: cell-based; settings: Table 4; two tests, first/second value where not identical
Description: as §1

[13] = tested on: Pseudomonas aeruginosa ATCC 27853; assay: microbe, parasite or virus in culture; type: cell-based
Description: as §1

[14] = tested on: Salmonella enteritidis IID 604; settings: IID 604
[15] = tested on: Trichophyton rubrum NBRC9185; settings: NBRC9185
[16] = tested on: Alternaria alternata JCM5800
[17] = tested on: Salmonella typhimurium JCM1652
[18] = tested on: Micrococcus luteus NBRC13867
[19] = tested on: Trichophyton mentagrophytes NBRC6124; settings: NBRC6124
[20] = tested on: Actinobacillus actinomycetemcomitans JCM2434
[21] = tested on: Bacteroides fragilis JCM 11019
[22] = tested on: Fusarium solani JCM11383; settings: JCM11383
[23] = tested on: Acinetobacter baumanni JCM6841; settings: JCM6841
[24] = tested on: Bacillus subtilis NBRC3134; settings: NBRC3134
[25] = tested on: Fusobacterium nucleatum JCM 11025
[26] = Table 4, two tests, first/second value where not identical

Compound | MIC Streptococcus pyogenes [11] | MIC Escherichia coli [12] | MIC Staphylococcus epidermidis [1] | MIC Staphylococcus aureus [2, 26] | MIC Pseudomonas aeruginosa [13, 26] | MIC Salmonella Enteritidis [14] | MIC Trichophyton rubrum [15] | MIC Alternaria alternata ([16]; JCM5800) | MIC Micrococcus luteus [18] | MIC Trichophyton mentagrophytes [19] | MIC Actinobacillus actinomycetemcomitans [20] | MIC Bacteroides fragilis [21, 26] | MIC Fusarium solani [22] | Escherichia coli ATP (viability, relative value to negative control) [7] | Staphylococcus aureus ATP (viability, relative value to negative control) [8] | Pseudomonas aeruginosa ATP (viability, relative value to negative control) [9] | MIC Acinetobacter baumanni [23] | MIC Bacillus subtilis [24] | MIC Candida krusei ([10]; NBRC1395) | MIC Salmonella Typhimurium ([17]; JCM1652) | also measured
Cc1onc(-c2ccccc2)c1C(=O)N[C@@H]1C(=O)N2[C@@H]1SC(C)(C)[C@@H]2C(=O)O [oxacillin, reference compound] |  |  |  |  |  |  |  |  |  |  |  |  |  |  |  |  |  |  |  |  | MIC ([1]; Staphylococcus epidermidis, JCM2414, read-out: MIC Staphylococcus epidermidis, Table 4, two tests, first/second value where not identical): 0.15 to 0.5 µg/mL (≈ 0.374 to 1.25 µM); MIC ([2]; Staphylococcus aureus, ATCC29213, read-out: MIC Staphylococcus aureus, Table 4, two tests, first/second value where not identical): 0.15 to 0.5 µg/mL (≈ 0.374 to 1.25 µM); MIC [3]: > 8000 µg/mL; MIC [4]: 2 µg/mL (≈ 4.98 µM); MIC [5]: < 4000 µg/mL; MIC [6]: 8 µg/mL (≈ 19.9 µM); viability at 10 µg/mL ([7]; ATCC25922, 3 h, read-out: Escherichia coli ATP (viability, relative value to negative control)): 142%; viability at 10 µg/mL ([8]; ATCC29213, 3 h, read-out: Staphylococcus aureus ATP (viability, relative value to negative control)): 121%; viability at 10 µg/mL ([9]; ATCC27853, 3 h, read-out: Pseudomonas aeruginosa ATP (viability, relative value to negative control)): 100%
Ac-GRLKRMGKRLKRKIQKWARW-NH2 [SRP-18] | 16 µg/mL | 8/16 | 8 µg/mL | 8/16 | 4/8 | 2 µg/mL | 32 µg/mL | 32 µg/mL | 1 µg/mL | 16 µg/mL | 64 µg/mL | 64/32 | 8 µg/mL | 1.7 | 2.0 | 1.5 | 32 µg/mL | 2 µg/mL |  |  | MIC Candida krusei [10, 26]: 32/16; MIC Salmonella Typhimurium [17, 26]: 4/2; MIC Fusobacterium nucleatum [25, 26]: 32/16
Ac-KLIFLRELRRLRKRLKRKLR-NH2 [SRP-20] | 32 µg/mL | 8/16 | 8000 to 16000 µg/mL |  | 8/16 | 4 µg/mL | 32 µg/mL |  | 2 µg/mL | 16 µg/mL | 128 µg/mL | 8/16 | 4 µg/mL | 6.2 | 3.2 | 1.1 | 16 µg/mL | 2 µg/mL | 16 µg/mL | 4 µg/mL | MIC Staphylococcus aureus ([2]; ATCC29213): 16 µg/mL; MIC Alternaria alternata [16, 26]: 32/64; MIC Fusobacterium nucleatum ([25]; JCM 11025): 4 µg/mL
GRLKRMGERLKRKIQKLIRL-NH2 [SRP-21] | 8 µg/mL | 16/32 | 8000 to 16000 µg/mL | 8/32 |  | 2 µg/mL | 128 µg/mL | 64 µg/mL | 1 µg/mL | 64 µg/mL | 32 µg/mL |  | 16 µg/mL | 3.7 | 1.8 | 3.8 | 32 µg/mL | 2 µg/mL | 32 µg/mL | 2 µg/mL | MIC Pseudomonas aeruginosa ([13]; ATCC 27853): 8 µg/mL; MIC Bacteroides fragilis ([21]; JCM 11019): 16 µg/mL; MIC Fusobacterium nucleatum ([25]; JCM 11025): 4 µg/mL
